Experiments:
hMSC = test: LDH-leakage cytotoxicity in hMSC; assay type: cell-based, human
Procedure: Low-density hMSC (CD45^−, Thy^+) were cultivated at 21.5 10^3 cells cm^2 on 1 mg/ml collagen gel type I matrix in the presence of liver-specific (LSP) cytokines, added either as a cocktail [basal medium supplemented with 10 ng/ml FGF-4 (fibroblast growth factor type 4), 20 ng/ml HGF (hepatic growth factor) (all from R&D), 1×ITS (insulin, transferrin, selenious acid) and 0.05 μM Dex (dexamethasone) (all from Sigma)] or sequentially [basal medium supplemented with 10 ng/ml FGF-4, following basal media supplemented with 20 ng/ml HGF (R&D) and finally basal medium supplemented with 20 ng/ml HGF, 1×ITS and 0.05 μM Dex]. Basal medium consisted of 60% (v/v) DMEM-LG/40% (v/v) MCDB-201 supplemented with 1 mg/ml LA-BSA, 100 IU/ml penicillin, 100 μg/ml streptomycin, 0.1 mM L-ascorbic acid, 4 μg/ml nicotinamide, 27.3 mg/l sodium-pyruvate and 1.623 mM glutamin (all from Sigma). The media were changed every three days.
The assay was done with an LDH-kit (Merck 1 14869.0001; Ecoline 1S) according to the manufacturer's recommendations.

GSTA = GSTA iso-enzyme activity in cultured rat hepatocytes; assay type: cell-based; settings: TSA treatment
Description: (§1) Hepatocytes were isolated from male Sprague-Dawley rats by a two-step collagenase perfusion as described (De Smet et al. In ‘Methods in Molecular Biology, Vol. 107: Cytochrome P450 Protocols’, Philips IR and Shephard E A, eds., p.p 295-301, Humana Press, Totowa, 1998). Hepatocytes were cultivated in monolayer cultures with Willam's E Medium (WE) for 7 days. […] The maintenance of differentiation characteristics was studied after 2, 4, and 7 days (D2, D4, D7) of culture.
In order to investigate Phase II biotransformation, total cytosolic glutathione S-transferase (GST) activity and activities of individual GSTA, GSTP, and GSTM iso-enzymes were measured using standard techniques known in the art. (i.e., measuring conjugation of reduced glutathione with 1-chloro-2,4-dinitrobenzene for total GST; measuring conjugation of reduced glutathione with 7-chloro-4-nitrobenzo-2-oxa-1,3-diazole for GSTA activity; measuring conjugation of reduced glutathione with ethacrynic acid for GSTP activity; and measuring conjugation of reduced glutathione with 1,2-dichloro-4-nitrobenzene for GSTM activity).

[1] = Biotransformation by human liver microsomes; assay type: in vitro ADME; settings: 140 μM TSA, 150 min
Procedure: Human liver specimens (n=3) were acquired from organ donors at the Academic Hospital of the VUB in accordance with the regulations of the local Medical Ethical Committee and immediately frozen in liquid nitrogen. While human liver microsomes were prepared from frozen liver tissue, rat livers (n=3) were freshly isolated for immediate microsome preparation. Microsomal 7-ethoxyresorufin-O-deethylase (EROD) [31]was used as a marker enzyme to evaluate the microsomal biotransformation activity before and after storage. Incubations were carried out in a 100 mM sodium potassium phosphate buffer pH 7.4 in the presence of a NADPH-generating system (0.5 mM NADP^+, 10 mM glucose 6-phosphate, 2 U/ml glucose 6-phosphate dehydrogenase and 0.6 mM MgCl2). Microsomes (0.0-2.0 mg microsomal protein/ml) were incubated with 140 μM substrate at 37° C. for 150 min. Boiled microsomes ([…]) served as a control. Biotransformation reactions were initiated by addition of substrate and, at selected time intervals, terminated by dilution with ice-cold acetonitrile (1:2.5).
After centrifugation (2000 g, 45 min, 4° C.) of the diluted microsomal samples, the clear supernatant was injected onto a HPLC column. Samples from incubations with hepatocytes were thawed on ice and centrifugated (120 g, 2 min). […]

[2] = system: gap junctional intercellular communication; test: GJIC scrape loading/dye transfer assay; assay type: cell-based, rat; settings: 1 μM TSA; from D4 on
Procedure: In all conditions, the hepatocytes were cultivated as a monolayer configuration, and samples were taken at days 1, 4 and 7 (D1, D4, D7) of the cultivation time.
Scrape loading/dye transfer assay was performed as described by el-Fouly et al., 1987: 422-430. In brief, hepatocytes were scraped in the presence of 0.05% m/V Lucifer Yellow and incubated for 5 minutes at 37° C. The dye was then removed, cells were rinsed twice with PBS and fixed with 4% m/V paraformaldehyde. Evaluation was performed by fluorescence microscopy. The distance traveled by Lucifer Yellow from the scrape was used as a parameter to evaluate GJIC functionality.

CYP 1A1 = CYP 1A1 activity (ethoxyresorufin conversion) in cultured rat hepatocytes; assay type: cell-based
Description: as §1
Phase I biotransformation was assessed by means of activity measurements of the microsomal cytochrome P450 (CYP) 1A1 and 2B1/2 iso-enzymes, using standard techniques known in the art (i.e., measuring conversion of ethoxyresorufin into hydroxyresorufin for CYP 1A1 and conversion of penthoxyresorufin to hydroxyresorufin for CYP 2B1/2) (Burke et al. Drug Metab Dispos 2:583-588, 1974). Microsomes were prepared from freshly isolated and hepatocytes cultured for 7 days according to Hales et al. (Biochem Pharmacol 26:555-556, 1977).

CC(C=CC(=O)NO)=CC(C)C(=O)c1ccc(N(C)C)cc1 (centres unmarked) [TSA]
cytotoxicity (LDH leakage) (hMSC; 1 μM TSA): did not cause immediate cell death | cell lethality (LDH leakage) (hMSC; 1 μM TSA, from day 13 (cocktail) and day 3 (sequential) on): significantly downregulated cell lethality | cytotoxicity (LDH leakage) (hMSC; 5 and 25 μM TSA from day 0 until addition of HGF): immediate cell death | activity of GSTA iso-enzyme (GSTA): substantially unaffected | biotransformation in microsome suspensions [1]: slow and incomplete biotransformation | GJIC activity [2]: increases GJIC activity | activity of CYP 1A1 versus EtOH-treated controls (CYP 1A1; 1 μM TSA starting at 0 h or 4 h, day 4 and 7): significantly higher | CYP 1A1/2 Activity (CYP 1A1; 7-day conventionally cultured adult rat hepatocytes, 1 μm TSA): 4.3 ± 0.6 pmol resorufin/minute mg microsomal protein
